One test concerns K562. Kind of test: Cytotoxicity against human K562 cells after 72 hrs by alamar blue assay. The class given is functional, cell-based. The note with it: K562, 72 h. A general note: Resazurin is reduced to fluorescent resorufin, in cell work by metabolically active cells.
A further test concerns P388. Kind of test: Cytotoxicity against mouse P388 cells after 72 hrs by alamar blue assay. The note with it: P388, 72 h. The class given is functional, cell-based.
Another test concerns A549. Put plainly: Cytotoxicity against human A549 cells after 72 hrs by alamar blue assay. The class given is functional, cell-based. The note with it: A549, 72 h.
In test [1] the test system is Neutrophil. Put plainly: Anti-inflammatory activity in human neutrophils assessed as inhibition of fMLP/CB-induced elastase release preincubated for 5 mins followed by fMLP/CB stimulation for 10 mins using MeO-Suc-Ala-Ala-Pro-Val-p-nitroanilide as substrate. The class given is functional, cell-based.
Test [2] relates to Neutrophil. Kind of test: Anti-inflammatory activity in human neutrophils assessed as inhibition of fMLP/CB-induced superoxide anion generation at 10 uM preincubated for 5 mins followed by cytochalasin B addition for 3 mins and fMLP for 10 mins by superoxide dismutase inhibitable reduction of ferricytochrome c based assay relative to control. The class given is functional.
A further test relates to DLD-1. Kind of test: Cytotoxicity against human DLD1 cells after 72 hrs by alamar blue assay. The note with it: DLD-1, 72 h. The class given is functional, cell-based.
The test system of a further test is HT-29. Kind of test: Cytotoxicity against human HT-29 cells after 72 hrs by alamar blue assay. The class given is functional, cell-based. The note with it: HT-29, 72 h.
Test [3] has as its system Neutrophil. Kind of test: Anti-inflammatory activity in human neutrophils assessed as inhibition of fMLP/CB-induced elastase release at 10 uM preincubated for 5 mins followed by fMLP/CB stimulation for 10 mins using MeO-Suc-Ala-Ala-Pro-Val-p-nitroanilide as substrate. The class given is functional.
The subject of test [4] is Neutrophil. Kind of test: Anti-inflammatory activity in human neutrophils assessed as inhibition of fMLP/CB-induced superoxide anion generation preincubated for 5 mins followed by cytochalasin B addition for 3 mins and fMLP for 10 mins by superoxide dismutase inhibitable reduction of ferricytochrome c based assay. The class given is functional, cell-based.

The structures appear in SMILES notation. Bounds are passed on as bounds.

As to `CC(C)[C@@H](C)[C@@]1(C)C[C@@H]1[C@@H](C)[C@H]1CC[C@H]2[C@@H]3[C@H](O)C=C4C[C@@H](O)CC[C@]4(C)[C@@]3(O)OC[C@]12C`, the IC50 (as a rule, the point on the concentration scale where inhibition reaches its midpoint) in the test on K562 is more than 40 µM; with P388, more than 40 µM; in the test with A549 it was more than 40 µM; with Neutrophil [1], more than 10 µM; in the test on DLD-1, more than 40 µM; with HT-29 it was more than 40 µM. Besides, in the test with Neutrophil [4], the IC50 was more than 10 µM. Further, the inhibition (as a rule, the drop in the measured response relative to a control, in per cent) at 10 µM in the test on Neutrophil [2] came out at 1.21%; with Neutrophil [3], 25.2%.
For `CC(C)[C@@H](C)C[C@H](O)[C@@H](C)[C@H]1CC[C@H]2[C@@H]3[C@@H](O)C=C4C[C@@H](O)CC[C@]4(C)[C@H]3CC[C@]12C`, the IC50 in the test on K562 was more than 40 µM; with P388 it was 31.8 µM; in the test with A549 it was more than 40 µM; in the test with Neutrophil [1], 5.84 µM; in the test on DLD-1 it was more than 40 µM; in the test on HT-29, 36.7 µM. Also, the half-maximal inhibitory concentration (IC50) with Neutrophil [4] was more than 10 µM. For the same compound, the values for the inhibition at 10 µM in the test with Neutrophil [2] and with Neutrophil [3] were 12.6% and 79.2%, respectively.
Regarding `COc1cccc2c1C(=O)c1c(O)c3c(c(O)c1C2=O)C[C@@](O)(C(=O)CO)C[C@@H]3O[C@H]1C[C@H](N)[C@H](O)[C@H](C)O1` [DOXORUBICIN], the midpoint of inhibition in the test on HT-29, the IC50, lay at 0.87 µM.
Regarding `CC(C)[C@@H](C)[C@@]1(C)C[C@@H]1[C@@H](C)[C@H]1CC[C@@H]([C@@]23C=C[C@]4(C[C@@H](O)CC[C@]4(C)C2=O)OO3)[C@]1(C)CCO`, the IC50 in the test on K562 is 22.5 µM; in the test with P388 it was more than 40 µM; in the test with A549 it was 15.8 µM; in the test on Neutrophil [1], 1.55 µM; in the test with DLD-1, 27.5 µM; with HT-29, 27.5 µM. Moreover, the IC50 in the test on Neutrophil [4] turned out to be 5.83 µM. Further, the inhibition at 10 µM is 67% in the test on Neutrophil [2] and 111% with Neutrophil [3].
